The source of these data is patent publication US4086196A, “Parathyroid hormone” (Armour Pharmaceutical Company, priority 1975, dated 1978).

Assay [1] relates to adenylate cyclase in rat renal cortical homogenates. The assay is described as follows: In vitro rat kidney adenylate cyclase bioassay. In kind it is biochemical. The following applies: mean potency with 95% confidence limits; against house standard Sephadex-BPTH calibrated to MRC Standard A. As for the experimental part:
(§1) In vitro bioassays based on the activation of adenylate cyclase in rat renal cortical homogenates were carried out by the procedure of Marcus and Aurbach (Endocrinology, (1969), 85, 801-810). In vivo bioassays were performed by the method of Parsons, Reit and Robinson (Endocrinology, (1973), 92, 454-462), a procedure based on increase in the serum calcium in the chick after intravenous injection. A house standard of highly purified bovine parathyroid hormone ("Sephadex-BPTH") calibrated against Medical Research Council Standard A (National Institute for Medical Research, London, England) was used for both in vivo and in vitro assays. The biological activities of the synthetic HPTH-(1-34), and the native HPTH-(1-84)-peptides in the in vitro rat kidney adenylate cyclase assay and the in vivo chick hypercalcemia assay are shown in Table 2. Included for comparison are the corresponding data on the native bovine-(1-84) and the synthetic bovine-(1-34) peptides, as well as the analogue [Ala^1 ]-HPTH-(1-34).

The test system of assay [2] is serum calcium in the chick. The assay is described as follows: In vivo chick hypercalcemia bioassay. The note with it: mean potency with 95% confidence limits; intravenous injection; against house standard Sephadex-BPTH calibrated to MRC Standard A. Here is the method:
as §1

The conditions of assay [3]: bioassay systems in vivo and in vitro; cited from earlier work.

In the case of “HPTH-(1-84) (native): native human parathyroid hormone (1-84)”, the “In vitro Rat kidney adenylate cyclase” value in assay [1] is 350 (275-425) MRCU/mg.
For the molecule `CC[C@H](C)[C@H](NC(=O)[C@H](CCC(=O)O)NC(=O)[C@H](CO)NC(=O)[C@@H](NC(=O)[C@H](C)N)C(C)C)C(=O)N[C@@H](CCC(N)=O)C(=O)N[C@@H](CC(C)C)C(=O)N[C@@H](CCSC)C(=O)N[C@@H](Cc1c[nH]cn1)C(=O)N[C@@H](CC(N)=O)C(=O)N[C@@H](CC(C)C)C(=O)NCC(=O)N[C@@H](CCCCN)C(=O)N[C@@H](Cc1c[nH]cn1)C(=O)N[C@@H](CC(C)C)C(=O)N[C@@H](CC(N)=O)C(=O)N[C@@H](CO)C(=O)N[C@@H](CCSC)C(=O)N[C@@H](CCC(=O)O)C(=O)N[C@@H](CCCNC(=N)N)C(=O)N[C@H](C(=O)N[C@@H](CCC(=O)O)C(=O)N[C@@H](Cc1c[nH]c2ccccc12)C(=O)N[C@@H](CC(C)C)C(=O)N[C@@H](CCCNC(=N)N)C(=O)N[C@@H](CCCCN)C(=O)N[C@@H](CCCCN)C(=O)N[C@@H](CC(C)C)C(=O)N[C@@H](CCC(N)=O)C(=O)N[C@@H](CC(=O)O)C(=O)N[C@H](C(=O)N[C@@H](Cc1c[nH]cn1)C(=O)N[C@@H](CC(N)=O)C(=O)N[C@@H](Cc1ccccc1)C(=O)O)C(C)C)C(C)C` [[Ala^1]-HPTH-(1-34)], in assay [1], the “In vitro Rat kidney adenylate cyclase” value is recorded as 4085(3550-4700) MRCU/mg. Further, the “In vivo Chick hypercalcemia” value in assay [2] is 4600(3500-6000) MRCU/mg.
Consider “BPTH-(1-34): synthetic peptide corresponding to 1-34 residues of bovine parathyroid hormone [reference compound]”, for which, in assay [1], the “In vitro Rat kidney adenylate cyclase” value is given as 5400(3900-8000) MRCU/mg. Moreover, in assay [2], the “In vivo Chick hypercalcemia” value is reported as 7700(5200-11100) MRCU/mg. Further, the “potency relative to whole bovine parathyroid hormone” value in assay [3] was “equipotent”.
On to `CC[C@H](C)[C@H](NC(=O)[C@H](CCC(=O)O)NC(=O)[C@H](CO)NC(=O)[C@@H](NC(=O)[C@@H](N)CO)C(C)C)C(=O)N[C@@H](CCC(N)=O)C(=O)N[C@@H](CC(C)C)C(=O)N[C@@H](CCSC)C(=O)N[C@@H](Cc1c[nH]cn1)C(=O)N[C@@H](CC(N)=O)C(=O)N[C@@H](CC(C)C)C(=O)NCC(=O)N[C@@H](CCCCN)C(=O)N[C@@H](Cc1c[nH]cn1)C(=O)N[C@@H](CC(C)C)C(=O)N[C@@H](CC(N)=O)C(=O)N[C@@H](CO)C(=O)N[C@@H](CCSC)C(=O)N[C@@H](CCC(=O)O)C(=O)N[C@@H](CCCNC(=N)N)C(=O)N[C@H](C(=O)N[C@@H](CCC(=O)O)C(=O)N[C@@H](Cc1c[nH]c2ccccc12)C(=O)N[C@@H](CC(C)C)C(=O)N[C@@H](CCCNC(=N)N)C(=O)N[C@@H](CCCCN)C(=O)N[C@@H](CCCCN)C(=O)N[C@@H](CC(C)C)C(=O)N[C@@H](CCC(N)=O)C(=O)N[C@@H](CC(=O)O)C(=O)N[C@H](C(=O)N[C@@H](Cc1c[nH]cn1)C(=O)N[C@@H](CC(N)=O)C(=O)N[C@@H](Cc1ccccc1)C(=O)O)C(C)C)C(C)C` [HPTH-(1-34)], for which, in assay [1], the “In vitro Rat kidney adenylate cyclase” value is 1030 (930-1140) MRCU/mg. Besides, in assay [2], the “In vivo Chick hypercalcemia” value is on record as 7400(5700-9700) MRCU/mg.

B1: BPTH-(1-84) (native): native bovine parathyroid hormone (1-84) (protein, UniProt P01268 32-115, looked up)
Parathyroid hormone: AVSEIQFMHNLGKHLSSMERVEWLRKKLQDVHNFVALGASIAYRDGSSQRPRKKEDNVLVESHQKSLGEADKADVDVLIKAKPQ
modifications: Parathyroid hormone
For B1, the “In vitro Rat kidney adenylate cyclase” value in assay [1] is 3000(2500-4000) MRCU/mg. Moreover, the “In vivo Chick hypercalcemia” value in assay [2] is given as 2500(2100-4000) MRCU/mg.
